Reference: patent US10941138B2, “Quinoline and isoquinoline derivatives for treating pain and pain related conditions” (ESTEVE PHARMACEUTICALS, S.A., priority 2016, dated 2021)
Read-outs that look alike come from different tables or passages of the source.

What was measured:
[1] = target: human α2δ-1 subunit of Cav2.2 calcium channel (Homo sapiens (Human), UniProt P54289); assay: Binding assay to human α2δ-1 subunit of Cav2.2 calcium channel ([3H]-Gabapentin); details: read-out: Ki (nM) alpha2delta Hum
Sequence of human α2δ-1 subunit of Cav2.2 calcium channel (P54289 25-1103): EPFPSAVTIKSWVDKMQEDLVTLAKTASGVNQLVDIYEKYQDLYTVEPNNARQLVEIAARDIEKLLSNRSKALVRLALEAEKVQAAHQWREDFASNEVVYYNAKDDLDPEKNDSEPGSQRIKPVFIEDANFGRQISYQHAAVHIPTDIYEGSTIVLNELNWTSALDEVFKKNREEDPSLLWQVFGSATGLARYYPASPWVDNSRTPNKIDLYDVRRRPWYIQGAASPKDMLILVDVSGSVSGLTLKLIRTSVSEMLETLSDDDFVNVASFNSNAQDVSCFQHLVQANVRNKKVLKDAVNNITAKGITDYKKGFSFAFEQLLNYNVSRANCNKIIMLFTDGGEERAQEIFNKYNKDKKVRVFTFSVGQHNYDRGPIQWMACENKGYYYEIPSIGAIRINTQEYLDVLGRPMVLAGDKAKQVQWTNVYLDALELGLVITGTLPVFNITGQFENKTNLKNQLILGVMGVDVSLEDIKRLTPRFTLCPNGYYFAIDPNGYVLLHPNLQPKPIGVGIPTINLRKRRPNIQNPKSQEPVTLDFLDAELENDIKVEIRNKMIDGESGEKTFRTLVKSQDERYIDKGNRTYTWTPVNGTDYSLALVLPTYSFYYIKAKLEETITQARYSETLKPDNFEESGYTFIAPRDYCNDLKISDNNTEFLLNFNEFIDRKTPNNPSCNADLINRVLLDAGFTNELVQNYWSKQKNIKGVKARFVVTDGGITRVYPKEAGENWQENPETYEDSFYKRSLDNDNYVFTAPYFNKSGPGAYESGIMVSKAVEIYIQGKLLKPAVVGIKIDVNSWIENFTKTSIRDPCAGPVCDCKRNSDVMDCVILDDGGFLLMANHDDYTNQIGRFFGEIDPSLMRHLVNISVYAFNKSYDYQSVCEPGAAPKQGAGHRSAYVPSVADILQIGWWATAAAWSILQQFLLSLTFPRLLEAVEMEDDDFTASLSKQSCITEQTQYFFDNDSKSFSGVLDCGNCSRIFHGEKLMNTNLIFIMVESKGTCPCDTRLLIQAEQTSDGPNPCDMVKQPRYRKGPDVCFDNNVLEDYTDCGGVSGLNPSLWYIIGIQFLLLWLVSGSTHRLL
Procedure: Binding Assay to Human α2δ-1 Subunit of Cav2.2 Calcium Channel.
Human α2δ-1 enriched membranes (2.5 μg) were incubated with 15 nM of radiolabeled [3H]-Gabapentin in assay buffer containing Hepes-KOH 10 mM, pH 7.4.
NSB (non specific binding) was measured by adding 10 μM pregabalin. The binding of the test compound was measured at five different concentrations. After 60 min incubation at 27° C., binding reaction was terminated by filtering through Multiscreen GF/C (Millipore) presoaked in 0.5% polyethyleneimine in Vacuum Manifold Station, followed by 3 washes with ice-cold filtration buffer containing 50 mM Tris-HCl, pH 7.4. Filter plates were dried at 60° C. for 1 h and 30 μl of scintillation cocktail were added to each well before radioactivity reading.
(§1) Readings were performed in a Trilux 1450 Microbeta radioactive counter (Perkin Elmer).

[2] = target: human norepinephrine transporter (NET) (Homo sapiens (Human), UniProt P23975); assay: Binding assay to human norepinephrine transporter (NET) ([3H]-Nisoxetin); details: Table 2, dual compounds, human NET enriched membranes, read-out: Ki (nM) NET Hum
Sequence of human norepinephrine transporter (NET) (P23975 whole entry): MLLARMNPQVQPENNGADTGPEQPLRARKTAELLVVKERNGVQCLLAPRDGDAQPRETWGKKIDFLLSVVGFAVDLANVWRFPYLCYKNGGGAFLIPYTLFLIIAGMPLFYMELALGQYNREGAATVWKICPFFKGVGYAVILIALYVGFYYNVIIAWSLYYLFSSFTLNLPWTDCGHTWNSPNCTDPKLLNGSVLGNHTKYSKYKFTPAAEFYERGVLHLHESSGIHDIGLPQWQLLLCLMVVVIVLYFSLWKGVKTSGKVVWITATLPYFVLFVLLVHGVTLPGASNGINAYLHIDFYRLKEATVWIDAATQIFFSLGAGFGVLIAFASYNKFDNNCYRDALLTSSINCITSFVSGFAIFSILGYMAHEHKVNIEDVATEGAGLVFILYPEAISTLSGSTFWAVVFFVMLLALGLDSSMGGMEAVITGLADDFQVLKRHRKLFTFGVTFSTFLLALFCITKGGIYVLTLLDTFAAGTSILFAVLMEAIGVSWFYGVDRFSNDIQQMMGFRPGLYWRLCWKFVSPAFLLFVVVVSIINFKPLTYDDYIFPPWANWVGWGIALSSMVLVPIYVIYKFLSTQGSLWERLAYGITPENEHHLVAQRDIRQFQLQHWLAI
Procedure: Binding Assay to Human Norepinephrine Transporter (NET).
Human norepinephrine transporter (NET) enriched membranes (5 μg) were incubated with 5 nM of radiolabeled [3H]-Nisoxetin in assay buffer containing 50 mM Tris-HCl, 120 mM NaCl, 5 mM KCl, pH 7.4.
NSB (non specific binding) was measured by adding desipramine 10 μM. The binding of the test compound was measured at five different concentrations. After 60 min incubation at 4° C., binding reaction was terminated by filtering through Multiscreen GF/C (Millipore) presoaked in 0.5% polyethyleneimine in Vacuum Manifold Station, followed by 3 washes with ice-cold filtration buffer containing 50 mM Tris-HCl, 0.9% NaCl, pH 7.4.
Filter plates were dried at 60° C. for 1 h and 30 μl of scintillation cocktail were added to each well before radioactivity reading.
as §1

[3] = Table 1, human α2δ-1 enriched membranes
[4] = Table 2, dual compounds, human α2δ-1 enriched membranes

Structure (SMILES) | Ki [1, 3] [nM] | Ki [1, 4] [nM] | Ki [2] [nM]
CNCC[C@H](Oc1cccc2ncccc12)c1ccsc1 [Example 67, (S)-N-methyl-3-(quinolin-5-yloxy)-3-(thiophen-3-yl)propan-1-amine] | 100 to 500 | 100 to 500 | 100 to 500
CNCC[C@@H](Oc1cccc2cnccc12)c1ccsc1 [Example 60, (R)-3-(isoquinolin-5-yloxy)-N-methyl-3-(thiophen-3-yl)propan-1-amine] | 100 to 500 | 100 to 500 | 100 to 500
CNCCC(Oc1cccc2cnccc12)c1ccc(F)s1 (stereo not drawn) [Example 45, 3-(5-fluorothiophen-2-yl)-3-(isoquinolin-5-yloxy)-N-methylpropan-1-amine] | < 100 | < 100 | 100 to 500
CNCC[C@@H](Oc1cccc2ncccc12)c1ccc(F)s1 [Example 53, (R)-3-(5-fluorothiophen-2-yl)-N-methyl-3-(quinolin-5-yloxy)propan-1-amine] | < 100 | < 100 | 100 to 500
CNCCC(Oc1cccc2cnccc12)c1cccs1 (stereo not drawn) [Example 3, 3-(isoquinolin-5-yloxy)-N-methyl-3-(thiophen-2-yl)propan-1-amine] | 100 to 500 | 100 to 500 | < 100
CNCC[C@H](Oc1cccc2ncccc12)c1ccc(F)s1 [Example 51, (S)-3-(5-fluorothiophen-2-yl)-N-methyl-3-(quinolin-5-yloxy)propan-1-amine] | 100 to 500 | 100 to 500 | 100 to 500
CNCC[C@@H](Oc1cccc2ncccc12)c1cccs1 [Example 15, (R)-N-methyl-3-(quinolin-5-yloxy)-3-(thiophen-2-yl)propan-1-amine] | 100 to 500 | 100 to 500 | 100 to 500
CNCCC(Oc1cccc2ccncc12)c1sccc1F (stereo not drawn) [Example 47, 3-(3-fluorothiophen-2-yl)-3-(isoquinolin-8-yloxy)-N-methylpropan-1-amine] | 100 to 500 | 100 to 500 | 100 to 500
CNCCC(Oc1cccc2ccncc12)c1ccc(F)s1 (stereo not drawn) [Example 49, 3-(5-fluorothiophen-2-yl)-3-(isoquinolin-8-yloxy)-N-methylpropan-1-amine] | 100 to 500 | 100 to 500 | 100 to 500
CNCCC(Oc1cccc2cnccc12)c1sccc1F (stereo not drawn) [Example 46, 3-(3-fluorothiophen-2-yl)-3-(isoquinolin-5-yloxy)-N-methylpropan-1-amine] | 100 to 500 | 100 to 500 | < 100
CNCCC(Oc1ccc2cnccc2c1)c1cccs1 (stereo not drawn) [Example 54, 3-(isoquinolin-6-yloxy)-N-methyl-3-(thiophen-2-yl)propan-1-amine] | 500 to 3000 | 500 to 3000 | 100 to 500
CNCCC(Oc1cccc2cnccc12)c1nccs1 (stereo not drawn) [Example 71, 3-(isoquinolin-5-yloxy)-N-methyl-3-(thiazol-2-yl)propan-1-amine] | 500 to 3000 | 500 to 3000 | 100 to 500
CNCC[C@H](Oc1cccc2ccncc12)c1ccsc1 [Example 69, (S)-3-(isoquinolin-8-yloxy)-N-methyl-3-(thiophen-3-yl)propan-1-amine] | ≥ 3000 | ≥ 3000 | 500 to 1000
CNCC[C@@H](Oc1cccc2ccncc12)c1ccsc1 [Example 61, (R)-3-(isoquinolin-8-yloxy)-N-methyl-3-(thiophen-3-yl)propan-1-amine] | 100 to 500 | 100 to 500 | 100 to 500
